Source: ChEMBL document CHEMBL5131559, “Discovery and Preclinical Profiling of GSK3839919, a Potent HIV-1 Allosteric Integrase Inhibitor” (ACS Med Chem Lett, 2022)

Key:
[1] = Clearance in CD-1 mouse at 1 mg/kg, iv by LC-MS/MS analysis; assay type: ADME, organism-based; details: in vivo
[2] = system: Human immunodeficiency virus 1; assay: Antiviral activity against recombinant HIV1 NLRep-Rluc harbouring polymorphic T124/T125 integrase infected in human MT-2 cells assessed as inhibition of virus growth in presence of fetal bovine serum by measuring luciferase activity after 4 days; assay type: functional, organism-based; details: Human immunodeficiency virus 1, NLRep, MT2, 96 h
[3] = system: Human immunodeficiency virus 1; assay: Antiviral activity against recombinant HIV1 NLRep-Rluc harbouring polymorphic N124/A125 integrase infected in human MT-2 cells assessed as inhibition of virus growth in presence of fetal bovine serum by measuring luciferase activity after 4 days; assay type: functional, organism-based; details: Human immunodeficiency virus 1, NLRep, MT2, 96 h
[4] = Cytotoxicity against human MT2 cells; assay type: toxicity, cell-based
[5] = Clearance in cynomolgus monkey at 1 mg/kg, iv by LC-MS/MS analysis; assay type: ADME, organism-based, Macaca fascicularis; details: in vivo
[6] = Clearance in Sprague-Dawley rat at 1 mg/kg, iv by LC-MS/MS analysis; assay type: ADME, organism-based; details: in vivo
[7] = AUC (0 to infinity) in Sprague-Dawley rat at 5 mg/kg, po by LC-MS/MS analysis; assay type: ADME, organism-based; design: time infinity, dose 5 mg/kg, route po; details: in vivo
[8] = Oral bioavailability in Sprague-Dawley rat at 5 mg/kg by LC-MS/MS analysis; assay type: ADME, organism-based; details: in vivo
[9] = system: Human immunodeficiency virus 1; assay: Antiviral activity against recombinant HIV1 NLRep-Rluc harbouring polymorphic A124/T125 integrase infected in human MT-2 cells assessed as inhibition of virus growth in presence of fetal bovine serum by measuring luciferase activity after 4 days; assay type: functional, organism-based; details: Human immunodeficiency virus 1, NLRep, MT2, 96 h
[10] = system: Human immunodeficiency virus 1; assay: Antiviral activity against recombinant HIV1 NLRep-Rluc harbouring polymorphic T124/A125 integrase infected in human MT-2 cells assessed as inhibition of virus growth in presence of fetal bovine serum by measuring luciferase activity after 4 days; assay type: functional, organism-based; details: Human immunodeficiency virus 1, NLRep, MT2, 96 h
[11] = system: Human immunodeficiency virus 1; assay: Antiviral activity against recombinant HIV1 NLRep-Rluc harbouring polymorphic N124/T125 integrase infected in human MT-2 cells assessed as inhibition of virus growth in presence of fetal bovine serum by measuring luciferase activity after 4 days; assay type: functional, organism-based; details: Human immunodeficiency virus 1, NLRep, MT2, 96 h
[12] = system: Human immunodeficiency virus 1; assay: Antiviral activity against recombinant HIV1 NLRep-Rluc harbouring polymorphic A124/A125 integrase infected in human MT-2 cells assessed as inhibition of virus growth in presence of fetal bovine serum by measuring luciferase activity after 4 days; assay type: functional, organism-based; details: Human immunodeficiency virus 1, NLRep, MT2, 96 h
[13] = system: Human immunodeficiency virus 1; assay: Antiviral activity against recombinant HIV1 NLRep-Rluc harbouring polymorphic T124/V125 integrase infected in human MT-2 cells assessed as inhibition of virus growth in presence of fetal bovine serum by measuring luciferase activity after 4 days; assay type: functional, organism-based; details: Human immunodeficiency virus 1, NLRep, MT2, 96 h
[14] = AUC (0 to infinity) in CD-1 mouse at 5 mg/kg, po by LC-MS/MS analysis; assay type: ADME, organism-based; design: time infinity, dose 5 mg/kg, route po; details: in vivo
[15] = Oral bioavailability in CD-1 mouse at 5 mg/kg by LC-MS/MS analysis; assay type: ADME, organism-based; details: in vivo
[16] = Clearance in Beagle dog at 1 mg/kg, iv by LC-MS/MS analysis; assay type: ADME, organism-based, Canis lupus familiaris; details: in vivo
[17] = AUC (0 to infinity) in Beagle dog at 2 mg/kg, po by LC-MS/MS analysis; assay type: ADME, organism-based, Canis lupus familiaris; design: time infinity, dose 2 mg/kg, route po; details: in vivo
[18] = Oral bioavailability in Beagle dog at 2 mg/kg by LC-MS/MS analysis; assay type: ADME, organism-based, Canis lupus familiaris; details: in vivo
[19] = AUC (0 to infinity) in cynomolgus monkey at 2 mg/kg, po by LC-MS/MS analysis; assay type: ADME, organism-based, Macaca fascicularis; design: time infinity, dose 2 mg/kg, route po; details: in vivo
[20] = Oral bioavailability in cynomolgus monkey at 2 mg/kg by LC-MS/MS analysis; assay type: ADME, organism-based, Macaca fascicularis; details: in vivo
[21] = Toxicity in human Huh-7 cells assessed as fold change in lipid droplet count at 10 uM incubated for 48 hrs by plate reader assay; assay type: cell-based; details: huh-7, 48 h
[22] = Toxicity in rat Hepatoma cell line assessed as fold change in lipid droplet count at 10 uM incubated for 48 hrs by plate reader assay; assay type: cell-based
[23] = Toxicity in human Huh-7 cells assessed as fold change in lipid droplet count at 20 uM incubated for 48 hrs by plate reader assay; assay type: cell-based; details: hepatoma cell line
[24] = system: Huh-7; assay: Cytotoxicity against human Huh-7 cells at 40 to 80 uM; assay type: toxicity, cell-based; details: huh-7, 80 µM, dose 40-80 µM
[25] = system: Hepatoma cell line; assay: Cytotoxicity against rat Hepatoma cell line at 40 to 80 uM; assay type: toxicity, cell-based; details: dose 40-80 µM
[26] = Cmax in rat at 50 mg/kg,po qd for 1 week; assay type: ADME, organism-based; design: time 1 weeks, dose 50 mg/kg, route po; details: in vivo
[27] = AUC in rat at 50 mg/kg,po qd for 1 week; assay type: ADME, organism-based; design: dose 50 mg/kg, time 1 weeks, route po; details: in vivo, 168 h
[28] = Toxicity in rat assessed as hepatocellular vacuolation at 200 mg/kg,po for 1 week; assay type: organism-based; details: in vivo, 168 h, time 1 weeks
[29] = Metabolic stability in human liver microsomes assessed as parent compound disappearance by measuring half life at 0.5 uM in presence of NADPH by LC-MS/MS analysis; assay type: ADME, Microsome
[30] = system: Human immunodeficiency virus 1; assay: Antiviral activity against recombinant HIV1 NLRep-Rluc harbouring polymorphic T124/T125 integrase infected in human MT-2 cells assessed as fold change in inhibition of virus growth in presence of fetal bovine serum by measuring luciferase activity after 4 days; assay type: functional; design: reference not given here; details: time 4 day
[31] = Toxicity in rat assessed as hepatocellular vacuolation at 50 mg/kg,po for 1 week; assay type: organism-based; details: in vivo, 168 h, time 1 weeks
[32] = Toxicity in rat assessed as increase in alkaline phosphatase level at 50 mg/kg,po for 1 week; assay type: organism-based; details: in vivo, 168 h, time 1 weeks
[33] = Toxicity in dog assessed as hepatocellular vacuolation at 60 mg/kg,po for 1 week; assay type: organism-based, Canis lupus familiaris; details: in vivo, 168 h, time 1 weeks
[34] = Toxicity in dog assessed as increase in alkaline phosphatase level at 60 mg/kg,po for 1 week; assay type: organism-based, Canis lupus familiaris; details: in vivo, 168 h, time 1 weeks

## Cc1cccc(Cl)c1CN1CCc2cc(-c3c(C)nc(C)c([C@H](OC(C)(C)C)C(=O)O)c3N3CCC(C)(C)CC3)ccc2C1
[1]
  clearance: 3.9 mL/min/kg
[2]
  EC50: 3.5 nM
[3]
  EC50: 7.5 nM
[4]
  CC50: 22500 nM
[5]
  clearance: 3.3 mL/min/kg
[6]
  clearance: 3.5 mL/min/kg
[7]
  AUC(0-inf): 14.9 µM·h
[8]
  bioavailability: 35%
[9]
  EC50: 5.8 nM
[10]
  EC50: 5.4 nM
[11]
  EC50: 5.8 nM
[12]
  EC50: 6.5 nM
[13]
  EC50: 3.2 nM
[14]
  AUC(0-inf): 30.3 µM·h
[15]
  bioavailability: 72%
[16]
  clearance: 0.5 mL/min/kg
[17]
  AUC(0-inf): 104 µM·h
[18]
  bioavailability: 90%
[19]
  AUC(0-inf): 5.4 µM·h
[20]
  bioavailability: 58%
[21]
  fold change (FC): 4.1
[22]
  fold change (FC): 3.7
[23]
  fold change (FC): 9.1
[24]
  Activity: Toxic
[25]
  Activity: Toxic
[26]
  Cmax: 32 µM
[27]
  AUC: 335 µM·h
[28]
  Activity: Toxic

## Cc1nc(C)c([C@H](OC(C)(C)C)C(=O)O)c(N2CCC(C)(C)CC2)c1-c1ccc2c(c1)CCN(Cc1ccc(F)cc1F)C2
[2]
  EC50: 2.5 nM
[3]
  EC50: 5.4 nM
[4]
  CC50: ≥ 24000 nM
[6]
  clearance: 20.1 mL/min/kg
[7]
  AUC(0-inf): 7.3 µM·h
[8]
  bioavailability: > 100%

## Cc1nc(C)c([C@H](OC(C)(C)C)C(=O)O)c(N2CCC(C)(C)CC2)c1-c1ccc2c(c1)CCN(c1ncnc3c1oc1ccccc13)C2
[2]
  EC50: 1.5 nM
[3]
  EC50: 3.4 nM
[4]
  CC50: ≥ 17000 nM
[6]
  clearance: 0.5 mL/min/kg
[7]
  AUC(0-inf): 226 µM·h
[8]
  bioavailability: 72%

## Cc1nc(C)c([C@H](OC(C)(C)C)C(=O)O)c(N2CCC(C)(C)CC2)c1-c1ccc(OCCc2ccc(F)cc2)cc1
[2]
  EC50: 1.7 nM
[3]
  EC50: 3.8 nM
[4]
  CC50: ≥ 22000 nM
[29]
  half-life at 0.5 µM: > 120 min
[21]
  fold change (FC): 3.7
[22]
  fold change (FC): 4

## Cc1nc(C)c([C@H](OC(C)(C)C)C(=O)O)c(N2CCC(C)(C)CC2)c1-c1ccc2c(c1)CCN(c1ncnc3c1cnn3C)C2
[2]
  EC50: 2.9 nM
[3]
  EC50: 7 nM
[4]
  CC50: ≥ 17000 nM
[6]
  clearance: 3.6 mL/min/kg
[7]
  AUC(0-inf): 36.2 µM·h
[8]
  bioavailability: 95%

## Cc1nc(C)c([C@H](OC(C)(C)C)C(=O)O)c(N2CCC(C)(C)CC2)c1C1=CCN(CCCc2ccc(F)cc2)CC1
[2]
  EC50: 7.6 nM
[4]
  CC50: ≥ 22000 nM
[30]
  fold change (FC): 4.8
[29]
  half-life at 0.5 µM: 35.5 min

## Cc1nc(C)c([C@H](OC(C)(C)C)C(=O)O)c(N2CCC(C)(C)CC2)c1-c1ccc2c(c1)CCN(Cc1cccc(F)c1C)C2
[2]
  EC50: 2.6 nM
[3]
  EC50: 8.1 nM
[4]
  CC50: ≥ 24000 nM
[6]
  clearance: 4 mL/min/kg
[7]
  AUC(0-inf): 23.2 µM·h
[8]
  bioavailability: 64%

## Cc1nc(C)c([C@H](OC(C)(C)C)C(=O)O)c(N2CCC(C)(C)CC2)c1-c1ccc2c(c1)CCN(c1nccc(-c3cnccn3)n1)C2
[2]
  EC50: 2.2 nM
[3]
  EC50: 7.9 nM
[4]
  CC50: ≥ 17000 nM
[6]
  clearance: 2.1 mL/min/kg
[7]
  AUC(0-inf): 23.7 µM·h
[8]
  bioavailability: 38%

## Cc1cccc(Cl)c1CN1CCc2cc(-c3cnc(C)c([C@H](OC(C)(C)C)C(=O)O)c3N3CCC(C)(C)CC3)ccc2C1
[1]
  clearance: 1 mL/min/kg
[2]
  EC50: 2.8 nM
[3]
  EC50: 5.7 nM
[4]
  CC50: 19500 nM
[5]
  clearance: 1.7 mL/min/kg
[6]
  clearance: 3.8 mL/min/kg
[7]
  AUC(0-inf): 21.6 µM·h
[8]
  bioavailability: 71%
[9]
  EC50: 4.5 nM
[10]
  EC50: 5 nM
[11]
  EC50: 3.1 nM
[12]
  EC50: 4.6 nM
[13]
  EC50: 1.6 nM
[14]
  AUC(0-inf): 43.1 µM·h
[15]
  bioavailability: 47%
[16]
  clearance: 2.2 mL/min/kg
[17]
  AUC(0-inf): 24.2 µM·h
[18]
  bioavailability: 89%
[19]
  AUC(0-inf): 10.7 µM·h
[20]
  bioavailability: 51%
[21]
  fold change (FC): 1.2
[22]
  fold change (FC): 1.8
[23]
  fold change (FC): 3.7
[24]
  Activity: Toxic
[25]
  Activity: Toxic
[26]
  Cmax: 488 µM
[31]
  Activity: Toxic
[32]
  Activity: Toxic
[33]
  Activity: Toxic
[34]
  Activity: Toxic
